Data from patent publication US8003779B2, “Compositions and methods for studying and treating inflammatory diseases and disorders” (University of Rochester, priority 2005, dated 2011).

Experiments:
293HGLVP/CrePr cells = assay: RU486-induced CrePr activation of IL-1βXAT in 293HGLVP/CrePr cells; type: cell-based
Description: The IL-1β^XAT gene was transiently transfected into 293HGLVP/CrePr cells and the expression of IL-1β and lacZ were evaluated following RU486 (10^-7 M) administration.
IL-1β expression was assessed at the mRNA level by reverse transcriptase PCR (RT-PCR), and lacZ expression was evaluated by X-gal histochemistry.

mice = type: in vivo; details: perinatal systemic administration
[1] = literature (Loddick and Rothwell 1996; Yamasaki et al. 1995); cited from earlier work
[2] = tested on: primary rat endothelial cells; assay: IL-1β regulation of inflammation-related genes in primary rat endothelial cells (mRNA, zymography); type: cell-based; details: murine IL-1β 10 ng/mL, over 72 hours
Description: The effects of IL-1β were evaluated in vitro utilizing primary rat endothelial cell cultures as a representative rodent cell type. In this experiment, murine IL-1β (10 ng/mL) was administered to cultured primary cells, and subsequently examined for the regulation of several inflammation-related genes at the transcript level over the course of 72 hours. These molecules include (A) the inducible isoform of cyclooxygenase (COX-2), intercellular adhesion molecule-1 (ICAM-1) and monocyte chemoattractant protein-1 (MCP-1), as well as (B) the collagenase-A (MMP-2) and -B (MMP-9). Panel (C) depicts enzyme activity levels of MMP-2 and MMP-9 as evaluated by zymography.
Moreover, a plethora of inflammation-related genes are in turn induced by IL-1β, leading to exacerbation of the inflammatory response. IL-1βregulates down-stream inflammatory genes, including the inducible isoform of cyclooxygenase (COX-2) and the intercellular adhesion molecule-1 (ICAM-1), the monocyte chemoattractant protein-1 (MCP-1), as well as collagenases A (MMP-2) and B (MMP-9). ICAM-1 and MCP-1 are molecules associated with the recruitment of circulating immune cells at the site of injury (i.e. neutrophils and monocytes, respectively), whereas MMP-2 and MMP-9 are collagenases associated with tissue destruction during arthritis and injury. Primary rat endothelial cells were employed as a representative rodent model to investigate the effects of IL-1β on the regulation of ICAM-1, MCP-1, MMP-2 and MMP-9 at the transcriptional level (mRNA) as well as the enzyme activity level (zymography). FIG. 5 summarizes the regulation of these genes over time.

CC#C[C@]1(O)CC[C@H]2[C@@H]3CCC4=CC(=O)CCC4=C3[C@@H](c3ccc(N(C)C)cc3)C[C@@]21C [RU486, mifepristone]
secreted IL-1β protein in supernatant media (ELISA) (293HGLVP/CrePr cells; RU486 10^-7 M): significantly higher levels | IL-1β and lacZ mRNA (RT-PCR) (293HGLVP/CrePr cells; RU486 10^-7 M, IL-1βXAT-transfected cells): up-regulation | number of X-gal positive cells (293HGLVP/CrePr cells; RU486 in culture media): significant increase

FIV(lacZ): FIV vector carrying the reporter gene lacZ, construct 12750 bp
duration of stable lacZ reporter expression (mice): over 3 months

IL-1ra: IL-1 receptor antagonist, competes for receptor binding
tissue damage / injury in stroke models [1]: significantly attenuates tissue injury

B1: IL-1β: pro-inflammatory cytokine; murine IL-1β (10 ng/mL) in FIG. 5 (protein, UniProt P10749 118-269, looked up)
Interleukin-1 beta: VPIRQLHYRLRDEQQKSLVLSDPYELKALHLNGQNINQQVIFSMSFVQGEPSNDKIPVALGLKGKNLYLSCVMKDGTPTLQLESVDPKQYPKKKMEKRFVFNKIEVKSKVEFESAEFPNWYISTSQAEHKPVFLGNNSGQDIIDFTMESVSS
MMP-2 enzyme activity (zymography) [2]: increased with time | MMP-2 mRNA levels [2]: not altered | synthesis of COX-2, MCP-1, ICAM-1 and MMP-9 [2]: upregulated | tissue damage / injury in stroke models [1]: exacerbates damage
